Measurements: US6391538B1, “Stabilization of implantable bioprosthetic tissue” (The Children's Hospital of Philadelphia, priority 2000, dated 2002)
Values joined by “and” are separate entries in the source; they are usually repeats but may differ in a detail not shown here. Equal values may be shown once.

What was measured:
[1] = tested on: porcine aortic cusps; assay: Subdermal calcification study in rats, porcine aortic cusps; type: in vivo
Procedure: In a first method of cross-linking bioprosthetic tissue, four separate cross-linking solutions were prepared:
1) 0.1 molar TGA in 0.05 molar HEPES buffer at pH 7.4,
2) 0.1 molar TGA in 0.05 boric acid-borax buffer at pH 9.0,
3) 0.1 molar Denacol 521™ (Nagase Chemical Co., Japan) in 0.05 molar HEPES buffer at pH 7.4, and
4) 0.05 molar HEPES buffer (pH 7.4) containing 0.6% (v/v) glutaraldehyde.
Twenty fresh porcine aortic cusps were added to separate 100 milliliter aliquots of each of the four solutions (i.e. using a total of eighty cusps). The cusps and solutions were maintained with constant shaking at room temperature for up to ten days without changing the solution. At selected times, a small section was removed from each of the cusps in each of the cross-linking reactions and analyzed by differential scanning calorimetry to determine the thermal shrinkage temperature (Ts). Cross-linking reactions were considered complete when the value of Ts remained substantially constant over time. Cusps treated in this manner were maintained in the cross-linking solution for more than 20 days prior to use in subsequent experiments. […]
Subdermal calcification studies were performed in rats using tissues treated and stored as described above. Following treatment by either of the two methods described above, the tissues were rinsed thoroughly with excess sterile saline solution immediately prior to implantation. Tissues were implanted subdermally (1 tissue sample per rat, 10 rats per treatment method). Twenty-one days following implantation, the tissues were recovered and their calcium content was measured in samples taken from each tissue.

[2] = tested on: porcine aortic wall segments; assay: Subdermal calcification study in rats, porcine aortic wall; type: in vivo; conditions: Group III: TGA second method, then treated with and stored in formalin-containing solution, 21 days, average ± standard error
Procedure: (§1) In a second method of cross-linking bioprosthetic tissue, separate 100 milliliter aliquots of […] TGA in 0.10 molar HEPES buffer at pH 7.4 were prepared. The following were added to individual aliquots of this solution.
(§2) The tissues and solutions were maintained at room temperature with constant shaking for up to seven days, during which time the pH of each cross-linking reaction was monitored. For selected reactions, the reaction mixture solution was replaced every 24 hours with a freshly-prepared 100 milliliter aliquot of 0.1 molar TGA in 0.10 molar HEPES buffer at pH 7.4. At selected times, a small section was removed from each tissue in each of the stabilization reaction mixtures, and the section was analyzed by differential scanning calorimetry to determine the thermal shrinkage temperature (Ts). After seven days of reaction, one group of each of the tissues was transferred to 100 milliliters of 0.05 molar phosphate buffer containing 4% (v/v) formalin and stored in this solution prior to use in subsequent experiments.
(§3) Subdermal calcification studies were performed in rats using tissues treated and stored as described above. […] Twenty-one days following implantation, the tissues were recovered and their calcium content was measured in samples taken from each tissue.

[3] = tested on: bovine pericardium; assay: Subdermal calcification study in rats, bovine pericardium; type: in vivo; conditions: Group III: TGA second method, then treated with and stored in formalin-containing solution, 21 days, average ± standard error
Procedure: as §1, §2, §3

[4] = tested on: A10 cells; assay: Relative biocompatibility of treated collagen surfaces, survival of A10 cells; type: cell-based; conditions: A10 cells on denatured bovine type I collagen film treated with 0.2% (v/v) glutaraldehyde (24 hours, room temperature) or 0.1 molar TGA (24 hours, 37° C.), pH 7.4; about 24 hours of culturing
Procedure: Denatured (100° C., 1 hour) bovine type I collagen was applied as a film to duplicate culture surfaces. One surface was treated by contacting it with a solution comprising 0.2% (v/v) glutaraldehyde at pH 7.4 for 24 hours at room temperature (i.e. about 20° C.). Another surface was treated by contacting it with a solution comprising 0.1 molar TGA at pH 7.4 for 24 hours at 37° C. Both surfaces were rinsed extensively using phosphate-buffered saline (pH 7.4) in order to remove non-reacted compounds. A10 cells (obtained from the American Type Culture Collection; Gaithersburg, Md.) were provided to both surfaces, and survival of the cells was monitored. A high proportion (estimated at 30% or more of cells) which were provided to the glutaraldehyde-treated collagen surface appeared to be dead following about 24 hours of culturing, with significant amounts of cell debris observed.

[5] = Thermal shrinkage temperature (Ts) by differential scanning calorimetry; type: physicochemical, porcine; conditions: cusp tissue, 0.1 molar TGA and 0.1 molar HEPES, solution replenished every 24 hours, seven days
Procedure: (§4) Twenty fresh porcine aortic cusps were added to separate 100 milliliter aliquots of each of the four solutions (i.e. using a total of eighty cusps). The cusps and solutions were maintained with constant shaking at room temperature for up to ten days without changing the solution. At selected times, a small section was removed from each of the cusps in each of the cross-linking reactions and analyzed by differential scanning calorimetry to determine the thermal shrinkage temperature (Ts). Cross-linking reactions were considered complete when the value of Ts remained substantially constant over time. Cusps treated in this manner were maintained in the cross-linking solution for more than 20 days prior to use in subsequent experiments.
as §2, with “After seven days of reaction, one group of each of the tissues was transferred to 100 milliliters of 0.05 molar phosphate buffer containing 4% (v/v) formalin and stored in this solution prior to use in subsequent experiments.” left out

[6] = pH monitoring of cross-linking reactions; type: physicochemical
Procedure: as §4
as §2, with “After seven days of reaction, one group of each of the tissues was transferred to 100 milliliters of 0.05 molar phosphate buffer containing 4% (v/v) formalin and stored in this solution prior to use in subsequent experiments.” left out

[7] = cusps cross-linked with 0.1 molar TGA in borate buffer pH 9.0, first method, subdermal in rats, 21 days

SMILES | calcium content, average value ± standard error ([1]; D: cusps cross-linked with 0.1 molar TGA in HEPES buffer pH 7.4, first method, subdermal in rats, 21 days) | calcium content of individual tissue samples ([1]; D: cusps cross-linked with 0.1 molar TGA in HEPES buffer pH 7.4, first method, subdermal in rats, 21 days, listed as D) | calcium content of individual tissue samples [1, 7] | calcium content, average value ± standard error [1, 7] | Calcium (micrograms/milligram of dry tissue) ([1]; porcine aortic cusps, Group III: TGA second method, then treated with and stored in formalin-containing solution, subdermal in rats, 21 days, average ± standard error) | post-implantation calcification of the tissue, result in words ([1]; tissues treated by first and second stabilization methods, compared with glutaraldehyde treatment) | Calcium (micrograms/milligram of dry tissue) [2] | Calcium (micrograms/milligram of dry tissue) [3] | proportion of cells which appeared to be dead [4] | thermal shrinkage temperature (Ts) [5] | pH of the stabilization reaction mixture ([6]; first stabilization method, solution not changed, seven-day reaction period) | pH of the stabilization reaction mixture ([6]; second method, reaction mixture solution replaced every 24 hours) | calcium content, average value ± standard error ([1]; cusps cross-linked with 0.6% (v/v) glutaraldehyde in 0.05 molar HEPES pH 7.4, first method, subdermal in rats, 21 days) | calcium content of individual tissue samples ([1]; cusps cross-linked with 0.6% (v/v) glutaraldehyde in 0.05 molar HEPES pH 7.4, first method, subdermal in rats, 21 days, listed as A)
C1OC1CN(CC1CO1)CC1CO1 (stereo not drawn) [TGA, triglycidyl amine] | 4.13 ± 2.14 micrograms of calcium per milligram of tissue | 1.59 micrograms of calcium per milligram of tissue and 17.58 micrograms of calcium per milligram of tissue and 1.107 micrograms of calcium per milligram of tissue and 1.021 micrograms of calcium per milligram of tissue and 0.615 micrograms of calcium per milligram of tissue and 1.30 micrograms of calcium per milligram of tissue and 8.75 micrograms of calcium per milligram of tissue and 1.14 micrograms of calcium per milligram of tissue | 1.318 micrograms of calcium per milligram of tissue and 0.811 micrograms of calcium per milligram of tissue and 1.31 micrograms of calcium per milligram of tissue and 2.13 micrograms of calcium per milligram of tissue and 1.20 micrograms of calcium per milligram of tissue and 3.85 micrograms of calcium per milligram of tissue | 1.769 micrograms of calcium per milligram of tissue | 18.07 ± 9.19 micrograms/milligram of dry ti | inhibits post-implantation calcification of the tissue relative to glutaraldehyde treatment | 21.17 ± 1.81 micrograms/milligram of dry ti | 7.43 ± 3.47 micrograms/milligram of dry ti | substantially undetectable proportion | about 83 °C | ~11.5 | ≤ 8 |  | 
O=CCCCC=O [glutaraldehyde, reference compound] |  |  |  |  |  |  |  |  | ≥ 30% |  |  |  | 106.69 ± 9.81 micrograms of calcium per milligram of tissue | 63.28 micrograms of calcium per milligram of tissue and 72.44 micrograms of calcium per milligram of tissue and 117.67 micrograms of calcium per milligram of tissue and 131.43 micrograms of calcium per milligram of tissue and 158.70 micrograms of calcium per milligram of tissue and 140.34 micrograms of calcium per milligram of tissue and 141.91 micrograms of calcium per milligram of tissue and 94.44 micrograms of calcium per milligram of tissue and 89.60 micrograms of calcium per milligram of tissue and 87.42 micrograms of calcium per milligram of tissue
